In patent US7962204B2 (priority 2001, dated 2011):

Tested on: behaviorally-diagnosed psychiatric conditions (DSM categories)
Set-up: species or system human
Conditions: in vivo
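Throughout, for use code of agent in 301.7 Antisocial Personality Disorder: N marks novel agent found effective in subject subgroups.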
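Throughout, for use code of agent in 301.83 Borderline Personality Disorder: N marks novel agent found effective in subject subgroups.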
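Throughout, for use in 307.50 Eating Disorder NOS: N marks novel agent found effective in subject subgroups.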
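Throughout, for use in 307.51 Bulimia Nervosa: N marks novel agent found effective in subject subgroups.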
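Throughout, for use in 313.81 Oppositional Defiant Disorder: N marks novel agent found effective in subject subgroups.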

NNCCc1ccccc1 [PHENALZINE]
N: use code of agent in 301.20 Schizoid Personality Disorder | use code of agent in 301.4 Obsessive-Compulsive Personality Disorder | use code of agent in 301.50 Histrionic Personality Disorder | use code of agent in 301.6 Dependent Personality Disorder | use code of agent in 301.7 Antisocial Personality Disorder | use code of agent in 301.82 Avoidant Personality Disorder | use code of agent in 301.83 Borderline Personality Disorder | use code of agent in 302.71 Hypoactive Sexual Desire Disorder | use code of agent in 307.42 Primary Insomnia | use code of agent in 311 Depressive Disorder NOS | use code of agent in 316 Psychological Factors Affecting Medical Condition, Atypical Asthma | use code of agent in 316 Psychological Factors Affecting Medical Condition, Neurodermatitis | use code of agent in Bipolar I Disorder | use code of agent in Major Depressive Disorder, Recurrent | use code of agent in Major Depressive Disorder, Single Episode | use in 294.9 Cognitive Disorder NOS | use in 296.89 Bipolar II Disorder | use in 296.90 Mood Disorder NOS | use in 299.80 Pervasive Developmental Disorder NOS | use in 300.00 Anxiety Disorder NOS | use in 300.22 Agoraphobia Without History of Panic Disorder | use in 300.23 Social Phobia | use in 300.29 Specific Phobia | use in 300.3 Obsessive-Compulsive Disorder | use in 300.4 Dysthymic Disorder | use in 301.13 Cyclothymic Disorder | use in 307.1 Anorexia Nervosa | use in 307.50 Eating Disorder NOS | use in 307.51 Bulimia Nervosa | use in 309.21 Separation Anxiety Disorder | use in 309.81 Posttraumatic Stress Disorder | use in 312.31 Pathological Gambling | use in 312.34 Intermittent Explosive Disorder | use in 312.39 Trichotillomania | use in 312.8 Conduct Disorder | use in 313.81 Oppositional Defiant Disorder | use in 315.9 Learning Disorder NOS | use in Attention-Deficit/Hyperactivity Disorder | use in Panic Disorder | use of the agent in the diagnostic category (C = common use; N = novel use from rEEG features)

C[C@H](N)Cc1ccccc1 [DEXEDRINE]
N: use code of agent in 294.9 Cognitive Disorder NOS | use code of agent in 296.90 Mood Disorder NOS | use code of agent in 300.4 Dysthymic Disorder | use code of agent in 301.13 Cyclothymic Disorder | use code of agent in 307.1 Anorexia Nervosa | use code of agent in 307.50 Eating Disorder NOS | use code of agent in 307.51 Bulimia Nervosa | use code of agent in 312.30 Impulse-Control Disorder NOS | use code of agent in 312.31 Pathological Gambling | use code of agent in 312.39 Trichotillomania | use code of agent in 312.8 Conduct Disorder | use code of agent in 313.81 Oppositional Defiant Disorder | use code of agent in 315.9 Learning Disorder NOS

NC(=O)C[S+]([O-])C(c1ccccc1)c1ccccc1 (centres unmarked) [MODAFINIL]
N: use code of agent in 294.8 Amnestic Disorder

N[C@@H](Cc1ccccc1)C(=O)O [PHENYLALANINE, reference compound]
N: agent found effective in 299.00 Autistic Disorder | agent found effective in 300.00 Anxiety Disorder NOS | agent found effective in 300.02 Generalized Anxiety Disorder | agent found effective in 300.22 Agoraphobia Without History of Panic Disorder | agent found effective in 300.23 Social Phobia | agent found effective in 300.29 Specific Phobia | agent found effective in 300.3 Obsessive-Compulsive Disorder | agent found effective in 309.81 Posttraumatic Stress Disorder | agent found effective in Panic Disorder | use in Dementia of the Alzheimer's Type

Cc1nc2n(c(=O)c1CCN1CCC(c3noc4cc(F)ccc34)CC1)CCCC2 [RISPERDONE]
N: use in 300.22 Agoraphobia Without History of Panic Disorder

N[C@@H]1C[C@H]1c1ccccc1 [PARNATE, reference compound]
N: use code of agent in 301.20 Schizoid Personality Disorder | use code of agent in 301.4 Obsessive-Compulsive Personality Disorder | use code of agent in 301.50 Histrionic Personality Disorder | use code of agent in 301.6 Dependent Personality Disorder | use code of agent in 301.7 Antisocial Personality Disorder | use code of agent in 301.82 Avoidant Personality Disorder | use code of agent in 301.83 Borderline Personality Disorder | use code of agent in 302.71 Hypoactive Sexual Desire Disorder | use code of agent in 307.42 Primary Insomnia | use code of agent in 311 Depressive Disorder NOS | use code of agent in 316 Psychological Factors Affecting Medical Condition, Atypical Asthma | use code of agent in 316 Psychological Factors Affecting Medical Condition, Neurodermatitis | use code of agent in Bipolar I Disorder | use code of agent in Major Depressive Disorder, Recurrent | use code of agent in Major Depressive Disorder, Single Episode | use in 294.9 Cognitive Disorder NOS | use in 296.89 Bipolar II Disorder | use in 296.90 Mood Disorder NOS | use in 299.80 Pervasive Developmental Disorder NOS | use in 300.00 Anxiety Disorder NOS | use in 300.02 Generalized Anxiety Disorder | use in 300.22 Agoraphobia Without History of Panic Disorder | use in 300.23 Social Phobia | use in 300.29 Specific Phobia | use in 300.3 Obsessive-Compulsive Disorder | use in 300.4 Dysthymic Disorder | use in 301.13 Cyclothymic Disorder | use in 307.1 Anorexia Nervosa | use in 307.50 Eating Disorder NOS | use in 307.51 Bulimia Nervosa | use in 309.21 Separation Anxiety Disorder | use in 309.81 Posttraumatic Stress Disorder | use in 312.30 Impulse-Control Disorder NOS | use in 312.31 Pathological Gambling | use in 312.34 Intermittent Explosive Disorder | use in 312.39 Trichotillomania | use in 312.8 Conduct Disorder | use in 313.81 Oppositional Defiant Disorder | use in 315.9 Learning Disorder NOS | use in Attention-Deficit/Hyperactivity Disorder | use in Panic Disorder | use of the agent in the diagnostic category (C = common use; N = novel use from rEEG features)

Cc1ccc(-c2nc3ccc(C)cn3c2CC(=O)N(C)C)cc1 [ZOLIPIDEM]
N: use of the agent in the diagnostic category (C = common use; N = novel use from rEEG features)

CC(NC(C)(C)C)C(=O)c1cccc(Cl)c1 (centres unmarked) [BUPROPRION (LONG ACTING)]
N: use code of agent in 301.20 Schizoid Personality Disorder | use code of agent in 301.22 Schizotypal Personality Disorder | use code of agent in 301.4 Obsessive-Compulsive Personality Disorder | use code of agent in 301.50 Histrionic Personality Disorder | use code of agent in 301.6 Dependent Personality Disorder | use code of agent in 301.7 Antisocial Personality Disorder | use code of agent in 301.82 Avoidant Personality Disorder | use code of agent in 301.83 Borderline Personality Disorder | use code of agent in 302.71 Hypoactive Sexual Desire Disorder | use code of agent in 307.42 Primary Insomnia | use code of agent in 311 Depressive Disorder NOS | use code of agent in 316 Psychological Factors Affecting Medical Condition, Atypical Asthma | use code of agent in 316 Psychological Factors Affecting Medical Condition, Neurodermatitis | use code of agent in Bipolar I Disorder | use in 294.8 Amnestic Disorder | use in 294.9 Cognitive Disorder NOS | use in 296.89 Bipolar II Disorder | use in 299.80 Pervasive Developmental Disorder NOS | use in 300.00 Anxiety Disorder NOS | use in 300.02 Generalized Anxiety Disorder | use in 300.22 Agoraphobia Without History of Panic Disorder | use in 300.23 Social Phobia | use in 300.29 Specific Phobia | use in 300.3 Obsessive-Compulsive Disorder | use in 301.13 Cyclothymic Disorder | use in 307.1 Anorexia Nervosa | use in 307.50 Eating Disorder NOS | use in 307.51 Bulimia Nervosa | use in 307.9 Communication Disorder NOS | use in 309.21 Separation Anxiety Disorder | use in 309.81 Posttraumatic Stress Disorder | use in 312.30 Impulse-Control Disorder NOS | use in 312.31 Pathological Gambling | use in 312.34 Intermittent Explosive Disorder | use in 312.39 Trichotillomania | use in 312.8 Conduct Disorder | use in 313.81 Oppositional Defiant Disorder | use in 315.9 Learning Disorder NOS | use in Attention-Deficit/Hyperactivity Disorder | use in Panic Disorder | use of the agent in the diagnostic category (C = common use; N = novel use from rEEG features)
